Data reported in PMC12767106, “In Situ Assembly of Transformable Monopeptide on Activated Neutrophils Attenuates NETs‐Induced Hepatocellular Carcinoma Metastasis by Disrupting NE Nuclear Translocation” (Advanced Science, 2025).

Experiments:
[1] = Nanoparticle size stability by DLS; type: physicochemical; conditions: room temperature, 20 µM, up to 168 h, method and Figure S3 legend name H2O and medium, repeated thrice
[2] = tested on: activated neutrophils; experiment: Retention on neutrophil membrane, flow cytometry of PpIX; type: cell-based, mouse; conditions: 50 µM, NPs washed off after 4 h, fresh medium for another 8 h
[3] = tested on: mice bearing Hepa1-6/luc tumors; experiment: Biodistribution by in vivo and ex vivo fluorescence imaging; design: species or system mouse
Procedure: To further evaluate the tumor tissue accumulation of FTP‐NPs in vivo, we conducted in vivo biodistribution studies using a murine model. For biodistribution studies, mice bearing Hepa1‐6/luc tumors were treated by NFTP‐NPs and FTP‐NPs via tail vein injection and monitored over time using an In‐Vivo system (IVIS, Figure 4a). After 12, 24, 48, and 168 h, tumors and major organs were collected for ex vivo fluorescence imaging (Figure S16a, Supporting Information). The fluorescence signal of the FTP‐NPs group was still detectable in tumor tissues after more than 3 days and lasted up to 7 days. In situ receptor‐mediated transformation of FTP‐NPs to NE‐fibril clusters in the tumor microenvironment may be responsible for the prolonged preservation of the fluorescence signal in FTP‐NPs‐treated mice, even after 7 days. […] The fluorescence signal of tumor tissue in the FTP‐NPs group at 48 h was 7.1‐fold higher than that in the NFTP‐NPs group (Figure S16b, Supporting Information).
(§1) Submitted to Advanced Science
Figure S16. Time-dependent ex vivo fluorescence (FL) images (a) and quantitative analysis (b) of tumor tissues and major organs (heart (H), liver (Li), spleen (Sp), lung (Lu), kidney (K), intestine(I), muscle (M), skin (Sk), and brain (B)) collected at 12, 24, 48, and 168 h post-injection of NFTP-NPs and FTP-NPs.
Figure S17. Gating strategy for T cell analysis. The tumor-bearing mice from each group were euthanized on day 20 post-treatment. Fifty thousand events were collected for each sample in the study. CD45+ cell counts determined the total T cell number, and CD8+ T cells were then gated within CD3+ T lymphocytes.
Figure S18. Corresponding flow cytometric quantification of CD8+T cells (CD45+CD3+CD8+, n = 3). Data are presented as mean ± s.d., n = 3 independent experiments. Statistical significance was calculated by one-way […]

[4] = tested on: Hepa1-6/luc liver and lung metastasis; experiment: Liver and lung metastasis model; type: in vivo, mouse; conditions: Hepa1-6/luc cells via spleen or tail vein, 300 µM in 200 µL i.v. every two days, 16 days, n = 5
Description: as §1
effector T cells (CD45+CD3+CD8+)/(CD45+CD3+CD4+), tumor cells were stained with anti-CD45-FITC
(Biolegend), anti-CD3ε-PerCP-Cy5.5 (Biolegend), anti-CD4-APC (Biolegend), and anti-CD8a-PE (Biolegend)
antibodies according to the standard protocol. For evaluation of NK cells (CD45+CD3-NK1.1+), tumor cells
were stained with anti-CD45-FITC (Biolegend), anti-CD3-PE (Biolegend) and anti-CD49b-APC (Biolegend)
antibodies and examined using flow cytometry. For MDSCs (CD45+CD11b+Gr-1+) analysis, tumor cells were
stained with anti-CD45-FITC, anti-CD11b-BrilliantViolet-510 (Biolegend), anti -F4/80-PE (Biolegend), and
anti-Gr-1-APC (Biolegend) antibodies for flow cytometry examination (BD FACS Canto SORP, USA). The
software FlowJo V10.6.2 was used for data analysis. To further explore the immunomodulatory effects of FTP-
NPs. Tumor tissues were harvested for immune profiling. Plasma cytokine levels, including IL-6, IL-10, and
TNF-α, were measured using commercially available ELISA kits to assess the immune activation induced by
Experimental liver and lung metastasis model
Six-week-old male C57BL/6J mice (20–25 g) were used to establish liver and lung metastasis models. Hepa1-
6/luc cells (1 × 10^6 cells) were injected into the spleen or tail vein of the mice to induce liver or lung
metastasis, respectively. For the liver metastasis model, Hepa1-6/luc cells were injected into the spleen, allowing
tumor cells to circulate and establish metastases in the liver. For the lung metastasis model, Hepa1-6/luc cells
were injected via the tail vein, leading to the formation of metastases in the lungs. Following cell implantation, […]
euthanized, and metastases were assessed macroscopically. […]
injecting D-Luciferin (150 mg/kg) intraperitoneally, and tumor burden was quantified using the IVIS Spectrum […]
conducted, and metastatic lesions were assessed under an inverted microscope (Axiovert 200, Zeiss, Germany). […]
300 μM per injection) for mice. […] (b) Fluorescence quantized chart […]
experiments. Statistical significance was calculated by one-way ANOVA, *p < 0.050.(c, d) Photographs of lung […]

[5] = tail vein injection, IVIS imaging

Substance	size change in PBS and FBS solutions within 168 h [1]	PpIX fluorescence on activated neutrophils from 4 h to 12 h (retention) [2]	fluorescence signal of tumor tissue relative to NFTP-NPs group ([3]; 48 h after tail vein injection, ex vivo imaging) [fold]	duration of fluorescence signal in tumor tissues [3, 5]	liver and lung metastasis (bioluminescent signals, number of metastatic foci) [4]	fluorescence signal in major organs by 72 h [3, 5]
PpIX-GFFVLK-EAIPMSIPPEVK [FTP-NPs]	did not change significantly	persistently strong PpIX fluorescence signals	7.1	up to 7 days	weakened considerably and significantly lower	–
PpIX-GGGAAK-EAIPMSIPPEVK [NFTP-NPs, nanoparticles of the non-fibrillar transformable control peptide NFTP]	did not change significantly	dropped sharply	–	–	obvious metastases	essentially undetectable
